Consider 14 molecules from patent US11306095B2 (EAST CHINA UNIVERSITY OF SCIENCE AND TECHNOLOGY, priority 2015, dated 2022).

For one data set, the target named is T1, Wild type EGFR (Homo sapiens, UniProt P00533).
T1 construct: purchased Invitrogen PV3872
In words: Kinase activity test (FRET), wild type EGFR. It is filed as biochemical. The procedure: (§1) EGFR-TK catalyses transfer of one phosphate group of adenosine triphosphate (ATP) to polypeptide substrate, poly(Glu, Tyr)4:1, which is labeled with two fluorescent groups coumarin and fluorescein.
(§2) 2.5 μL of Test Compounds, 5 μL Kinase/Peptide Substrate Mixture, 2.5 μL ATP Solution were added into a 384-well plate, and the 10 μL of reaction system was shaken for 30 s and incubated at room temperature for 1 h. 5 μL of Development Solution was added and the 15 μL of reaction system was shaken for 30 s, and incubated at room temperature for 1 h. […] The inhibitory rates of the compounds at 7 concentration gradients were determined and the IC50 value for each compound was calculated by Origin 8.0 fitting curve.
(§3) 10 concentration gradients from 5.1×10^−11 mol/L to 1.0×10^−6 mol/L were set for all compounds to be tested.
(§4) Compounds were diluted in DMSO for three times from 5.1×10^−9 M to 1×10^−4 M. 4 μL of the compound was dissolved in 96 μL of water to obtain a 4× compound solution. […] The 10 μL kinase reaction consisted of 2.5 μL compound solution, 5 μL kinase/peptide mix, 2.5 μL ATP solution. […] 5 μL of phosphorylated peptide solution, instead of the kinase/peptide mixture, was used as a 100% phosphorylation control. […] The plates were thoroughly mixed and incubated at room temperature for 1.5 hours. 5 μL of Development Solution was added into each well and then incubated for another 1 hour at room temperature, unphosphorylated peptides were cleaved during this period. Finally, 5 μL Stop Reagent was added to quench the reaction. The plates were measured with EnVision Multilabel Reader (Perkin Elmer). The experimental data were calculated using GraphPad Prism version 4.0. Each experiment was repeated more than 3 times.

For the next data set, the target named is T2, EGFR-L858R/T790M (Homo sapiens, UniProt P00533, L858R/T790M).
T2 construct: purchased Invitrogen PV4879
In words: Kinase activity test (FRET), EGFR T790M/L858R. In kind it is biochemical. The procedure: as §1, §2, §3, §4

The test system of data set [1] is H1975 cells (EGFR L858R/T790M). In words: Inhibitory activity on cell proliferation, H1975. In kind it is cell-based. To be noted: Homo sapiens, NCI-H1975. The procedure: (§5) Cell proliferation activity was assessed by MTS assay. Cells were exposed to processing conditions for 72 hours and the number of cells used in each experiment for each cell line was adjusted based on absorbance values (absorbance values at 490 nm, 1.3-2.2). Six concentration gradients (0.1 nM-10 μM) were set for the compounds to be tested, wherein at least 6 sets of parallel controls for each concentration were used.
(§6) H1975, A431 cells were cultured in corresponding media, and cells were passaged at least twice after resuscitation and then used for experiments. Cells at Log phase were trypsinized and resuspended in culture medium. H1975 (1000 cells per well), A431 (2000 cells per well) were seeded in 96-well plates in a volume of 100 μL; and 6 sets of parallel controls and 7 columns were set. The plate was placed in a 37° C. 5% CO2 incubator overnight. Compounds were dissolved in DMSO to a concentration of […], and then the concentration was gradually diluted to 10 μM, 1 μM, 0.1 μM, 0.01 μM, 0.001 μM, 0.0001 μM per liter, respectively. 2 μL of the compound solution was added to 998 μL of medium, and the mixture was thoroughly mixed. 100 μL of the mixture was added to a 96-well plate. […] After culturing for 68 hours, 20 μL of MTT (5 mg/mL) was added. After 4 hours, the supernatant was discarded and 150 μL of DMSO was added. After shaking for 10 minutes, the plate was read with Synergy HT (Bio TeK) (OD490). Data were calculated using GraphPad Prism version 4.0 and IC50 values were obtained using a non-linear regression model of dose response curve.

Data set [2] relates to A431 cells (EGFR wild type). In words: Inhibitory activity on cell proliferation, A431. It is filed as cell-based. To be noted: Homo sapiens, A-431. The method, then:
as §5, §6

Data set [3] in a line: Determination of solubility in water (PBS 20 mM, pH 6.8). In kind it is physicochemical. To be noted: PBS buffer, aqueous buffer, thermodynamic from solid. The procedure:
The suspension was filtered through a 0.22 μm PVDF filter, and then diluted to an appropriate concentration with methanol (v=50%) and PBS (v=50%), and the absorbance was measured by a UV spectrophotometer. About 3 mg of compound was accurately weighed, and methanol was added for preparing a stock solution of 1 mg/mL. The above stock solution was taken and prepared into a solution at concentrations of 0.05, 0.04, 0.03, 0.02 and 0.01 mg/mL, respectively, PBS solution (v=50%) was added and the absorbance value was measured. Concentration c (mg/mL) as horizontal ordinate vs absorbance A as longitudinal coordinate was plotted, and a line was fitted for obtaining a standard curve (correlation coefficient greater than 0.998). The solubility of a compound in water was calculated from the standard curve.

[4] abbreviates: wild type EGFR, read-out: Inhibitory activity of EGFR on kinase (IC50, nM) WT.
Setting [5] is: EGFR T790M/L858R, read-out: Inhibitory activity of EGFR on kinase (IC50, nM) T790M/L858R.
[6] abbreviates: H1975, 72 hours, read-out: Inhibitory activity on proliferation of cells (IC50, μM) H1975.
Where [7] appears, read: A431, 72 hours, read-out: Inhibitory activity on proliferation of cells (IC50, μM) A431.
Setting [8] is: pH 6.8, 20 mM PBS, read-out: Solubility (pH 6.8, g/mL).
Setting [9] is: Compound 53 before and after resolution, read-out: Inhibitory IC50 means (nM) ± SD value on tyrosine kinase activity EGFR.
The mark [10] stands for this setting: Compound 53 before and after resolution, read-out: Inhibitory IC50 means (nM) ± SD value on tyrosine kinase activity EGFR/T790M/L858R.
Setting [11] is: Compound 53 before and after resolution, read-out: Inhibitory IC50 means (μM) ± SD value on tumor cell growth activity NCI-H1975.
Setting [12] is: Compound 53 before and after resolution, read-out: Inhibitory IC50 means (μM) ± SD value on tumor cell growth activity A431.

Values after ≈ are worked out from the molar mass of the structure shown. Read-outs that look alike come from different tables or passages of the source.

T1 sequence (P00533 25-1210): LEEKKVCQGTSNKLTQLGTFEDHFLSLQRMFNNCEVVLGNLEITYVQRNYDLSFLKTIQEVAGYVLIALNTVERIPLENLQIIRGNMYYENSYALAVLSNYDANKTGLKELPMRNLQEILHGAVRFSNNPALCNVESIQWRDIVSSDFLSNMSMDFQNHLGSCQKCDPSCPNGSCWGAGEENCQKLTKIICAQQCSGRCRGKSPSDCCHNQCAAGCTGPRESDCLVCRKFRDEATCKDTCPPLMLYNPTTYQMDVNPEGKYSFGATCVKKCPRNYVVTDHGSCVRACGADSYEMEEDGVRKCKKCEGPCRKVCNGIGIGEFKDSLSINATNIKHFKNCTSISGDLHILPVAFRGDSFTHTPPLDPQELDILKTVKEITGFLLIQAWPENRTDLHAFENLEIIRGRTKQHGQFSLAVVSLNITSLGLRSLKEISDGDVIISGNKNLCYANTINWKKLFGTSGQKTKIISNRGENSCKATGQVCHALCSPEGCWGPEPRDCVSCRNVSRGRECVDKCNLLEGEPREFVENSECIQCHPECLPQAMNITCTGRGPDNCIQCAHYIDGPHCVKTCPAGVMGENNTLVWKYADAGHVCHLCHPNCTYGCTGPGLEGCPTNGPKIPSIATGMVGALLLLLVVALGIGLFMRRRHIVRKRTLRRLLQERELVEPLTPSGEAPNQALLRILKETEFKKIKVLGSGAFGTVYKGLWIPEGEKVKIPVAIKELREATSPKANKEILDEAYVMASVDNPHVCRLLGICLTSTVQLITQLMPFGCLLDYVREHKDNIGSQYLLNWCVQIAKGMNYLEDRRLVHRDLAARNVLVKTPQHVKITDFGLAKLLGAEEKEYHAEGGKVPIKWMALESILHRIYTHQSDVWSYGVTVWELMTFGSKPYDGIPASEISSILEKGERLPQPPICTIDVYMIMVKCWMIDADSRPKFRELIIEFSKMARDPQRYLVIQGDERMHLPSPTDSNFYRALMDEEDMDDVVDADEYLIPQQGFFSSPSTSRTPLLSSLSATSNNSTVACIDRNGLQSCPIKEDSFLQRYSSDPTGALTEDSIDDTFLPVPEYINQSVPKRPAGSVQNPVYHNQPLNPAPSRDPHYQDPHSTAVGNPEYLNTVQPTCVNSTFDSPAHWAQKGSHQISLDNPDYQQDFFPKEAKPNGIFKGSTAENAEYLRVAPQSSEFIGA
T2 sequence (P00533 25-1210 T790M/L858R): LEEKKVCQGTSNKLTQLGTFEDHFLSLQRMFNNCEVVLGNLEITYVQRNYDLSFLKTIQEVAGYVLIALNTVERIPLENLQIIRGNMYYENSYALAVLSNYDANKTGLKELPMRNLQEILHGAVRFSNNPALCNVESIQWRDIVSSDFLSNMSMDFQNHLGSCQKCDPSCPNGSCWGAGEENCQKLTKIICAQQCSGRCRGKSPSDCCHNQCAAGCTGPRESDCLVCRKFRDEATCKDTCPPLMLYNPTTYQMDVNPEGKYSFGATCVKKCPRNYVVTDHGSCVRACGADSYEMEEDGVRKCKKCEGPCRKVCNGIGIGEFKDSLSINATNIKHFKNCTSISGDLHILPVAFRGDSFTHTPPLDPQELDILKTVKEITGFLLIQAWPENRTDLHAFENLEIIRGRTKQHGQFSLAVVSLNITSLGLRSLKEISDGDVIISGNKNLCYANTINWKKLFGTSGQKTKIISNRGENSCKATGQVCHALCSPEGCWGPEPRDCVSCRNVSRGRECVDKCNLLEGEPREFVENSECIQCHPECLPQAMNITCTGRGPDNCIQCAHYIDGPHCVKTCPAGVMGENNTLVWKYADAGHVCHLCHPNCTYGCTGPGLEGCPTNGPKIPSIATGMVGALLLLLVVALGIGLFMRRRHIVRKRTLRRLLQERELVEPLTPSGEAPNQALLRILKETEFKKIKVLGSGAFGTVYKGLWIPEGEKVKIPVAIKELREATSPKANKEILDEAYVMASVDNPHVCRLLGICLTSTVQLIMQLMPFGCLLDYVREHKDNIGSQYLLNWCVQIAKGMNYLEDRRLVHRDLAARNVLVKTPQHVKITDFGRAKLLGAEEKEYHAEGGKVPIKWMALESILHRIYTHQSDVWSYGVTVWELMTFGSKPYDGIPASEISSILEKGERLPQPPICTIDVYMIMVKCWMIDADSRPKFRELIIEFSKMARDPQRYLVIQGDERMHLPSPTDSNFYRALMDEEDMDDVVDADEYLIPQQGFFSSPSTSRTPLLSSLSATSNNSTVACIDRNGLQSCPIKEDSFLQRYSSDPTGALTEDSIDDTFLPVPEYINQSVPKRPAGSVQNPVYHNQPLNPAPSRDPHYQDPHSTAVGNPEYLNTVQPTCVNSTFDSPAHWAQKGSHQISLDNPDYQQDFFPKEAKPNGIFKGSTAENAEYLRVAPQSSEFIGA

With `C=CC(=O)Nc1cc(Nc2ncc3nc(C(C)C)c(=O)n(C)c3n2)c(OC)cc1N(C)CCN(C)C` [Compound 23], the IC50 at Wild type EGFR (setting [4]) worked out at 1730 nM; at EGFR-L858R/T790M (setting [5]), 939 nM; in data set [1] (setting [6]), 1.85 µM; in data set [2] (setting [7]), 3.2 µM. In addition, the solubility in data set [3] (setting [8]) was 1690 µg/mL (≈ 3410 µM).

For the molecule `C=CC(=O)N1CCC[C@@H](Cn2c(=O)cnc3cnc(Nc4ccc(N5CCN(C)CC5)cc4OC)nc32)C1` [Compound 16, (R)-8-((1-acryloyl-3-piperidinyl)methyl)-2-((2-methoxy-4-(4-methyl-1-piperazinyl)phenyl)amino)-7(8H)-pteridinone], the IC50 is 4700 nM on Wild type EGFR (setting [4]), more than 10000 nM at EGFR-L858R/T790M (setting [5]), more than 10 µM in data set [1] (setting [6]) and more than 10 µM in data set [2] (setting [7]). Further, the solubility in data set [3] (setting [8]) came to 956 µg/mL (≈ 1840 µM).

In the case of `C=CC(=O)Nc1cccc(-n2c(=O)cnc3cnc(Nc4ccc(N5CCC(N(C)C)CC5)cc4OC)nc32)c1` [Compound 12], the IC50 on Wild type EGFR (setting [4]) was 3.5 nM; at EGFR-L858R/T790M (setting [5]) it was 6.2 nM; in data set [1] (setting [6]), 0.006 µM; in data set [2] (setting [7]), 2.52 µM. Also, the solubility in data set [3] (setting [8]) worked out at 369 µg/mL (≈ 683 µM).

For the molecule `C=CC(=O)N1CC[C@H](n2c(=O)c(-c3ccccc3)nc3cnc(Nc4ccc(N5CCN(C)CC5)c(C)c4)nc32)C1` [Compound 25, (S)-8-(1-acryloyl-3-pyrrolidinyl)-2-((3-methyl-4-(4-methyl-1-piperazinyl)phenyl)amino)-6-phenyl-7(8H)-pteridinone], the IC50 on Wild type EGFR (setting [4]) was 65.2 nM; on EGFR-L858R/T790M (setting [5]), 1.5 nM; in data set [1] (setting [6]), 0.016 µM; in data set [2] (setting [7]), 1.75 µM. For the same molecule, in data set [3] (setting [8]), the solubility worked out at 56.7 µg/mL (≈ 103 µM).

As for `C=CC(=O)Nc1cccc(-n2c(=O)cnc3cnc(Nc4cc(C)c(N5CCN(C)CC5)cc4OC)nc32)c1` [Compound 6, N-(3-(2-4-((2-methoxy-5-methyl-4-(4-methyl-1-piperazinyl)phenyl)amino)-7-oxo-8(7H)-pteridinyl)phenyl)acrylamide], the IC50 amounted to 106 nM on Wild type EGFR (setting [4]), 14.8 nM on EGFR-L858R/T790M (setting [5]), 0.46 µM in data set [1] (setting [6]) and 1.69 µM in data set [2] (setting [7]). Further, the solubility in data set [3] (setting [8]) was found to be 51.8 µg/mL (≈ 98.4 µM).

On to `C=CC(=O)Nc1cccc(-n2c(=O)c(C3CCCCC3)nc3cnc(Nc4ccc(N5CCN(C)CC5)cc4OC)nc32)c1` [Compound 43, N-(3-(6-cyclohexyl-2-((2-methoxy-4-(4-methyl-1-piperazinyl)phenyl)amino)-7-oxo-8(7H)pteridinyl)phenyl)acrylamide], for which the IC50 on Wild type EGFR (setting [4]) was 7.7 nM; on EGFR-L858R/T790M (setting [5]), 0.6 nM; in data set [1] (setting [6]), 0.112 µM; in data set [2] (setting [7]) it was 0.433 µM. Moreover, in data set [3] (setting [8]), the solubility is less than 10 µg/mL.

Turning to `C=CC(=O)Nc1cccc(-n2c(=O)cnc3cnc(Nc4ccc(N5CCN(C)CC5)c(OC)c4)nc32)c1` [Compound 4], the IC50 at Wild type EGFR (setting [4]) came to 4.5 nM; on EGFR-L858R/T790M (read-out: IC50 of inhibitory activity on EGFR-T790M/L858R kinase) it was 3.9 nM; in data set [1] (H1975 (EGFR-T790M/L858R), read-out: IC50 of inhibiting proliferation of H1975 cells), 0.009 µM; in data set [1] (setting [6]), 0.009 µM; in data set [2] (setting [7]) it was 0.94 µM. Also, the solubility in data set [3] (20 mM phosphate buffer, pH 6.8, read-out: solubility in water) was found to be 1370 µg/mL (≈ 2670 µM).

As to `C=CC(=O)Nc1cccc(-n2c(=O)c(C(C)C)nc3cnc(Nc4ccc(N(C)CCN(C)C)cc4OC)nc32)c1` [Compound 19, N-(3-(2-((4-((2-(dimethylamino)ethyl)(methyl)amino)-2-methoxyphenyl)amino)-6-isopropyl-7-oxo-8(71-1)-pteridinyl)phenyl)acrylamide], the IC50 is 174 nM on Wild type EGFR (setting [4]), 14.1 nM on EGFR-L858R/T790M (setting [5]), 1.16 µM in data set [1] (setting [6]) and 3.41 µM in data set [2] (setting [7]). The solubility in data set [3] (setting [8]) stood at 90.7 µg/mL (≈ 163 µM).

In the case of `C=CC(=O)Nc1cccc(-n2c(=O)cnc3cnc(Nc4ccc(N5CCN(C(C)=O)CC5)cc4OC)nc32)c1` [Compound 7, N-(3-(2-((4-(4-acetyl-1-piperazinyl)-2-methoxyphenyl)amino)-7-oxo-8(7H)-pteridinyl)phenyl)acrylamide], the IC50 at Wild type EGFR (setting [4]) is 45.2 nM; at EGFR-L858R/T790M (setting [5]), 9.5 nM; in data set [1] (setting [6]), 0.197 µM; in data set [2] (setting [7]), 20.5 µM. Also, in data set [3] (setting [8]), the solubility was less than 25 µg/mL.

For the molecule `C=CC(=O)Nc1cccc(-n2c(=O)c(C(C)C)nc3cnc(Nc4ccc(N5CCN(C)CC5)cc4OC)nc32)c1` [Compound 37, N-(3-(6-isopropyl-2-((2-methoxy-4-(4-methyl-1-piperazinyl)phenyl)amino)-7-oxo-8(7H)pteridinyl)phenyl)acrylamide], the IC50 on Wild type EGFR (setting [4]) was 26 nM; on EGFR-L858R/T790M (setting [5]) it was 4.9 nM; in data set [1] (setting [6]), 0.074 µM; in data set [2] (setting [7]), 3.23 µM. Besides, the solubility in data set [3] (setting [8]) is less than 10 µg/mL.

Consider `C=CC(=O)N1CCCC(n2c(=O)c(-c3ccccc3)nc3cnc(Nc4ccc(N5CCN(C)CC5)cc4OC)nc32)C1` (stereo not drawn) [Compound 58, 8-(1-acryloyl-3-piperidinyl)-2-((2-methoxy-4-(4-methyl-1-piperazinyl)phenyl)amino)-6-phenyl-7(8H)pteridinone], for which the solubility in data set [3] (setting [8]) was less than 10 µg/mL.

For `C=CC(=O)N1CCC(n2c(=O)cnc3cnc(Nc4ccc(N5CCN(C)CC5)cc4OC)nc32)CC1` [Compound 15, 8-(1-acryloyl-4-piperidinyl)-2-((2-methoxy-4-(4-methyl-1-piperazinyl)phenyl)amino)-7(8H)-pteridinone], the IC50 at Wild type EGFR (setting [4]) was determined as 2300 nM; at EGFR-L858R/T790M (setting [5]), 2250 nM. The solubility in data set [3] (setting [8]) was 514 µg/mL (≈ 1020 µM).

For `C=CC(=O)N1CCC[C@H](Cn2c(=O)c(-c3ccccc3)nc3cnc(Nc4ccc(N5CCN(C)CC5)cc4OC)nc32)C1` [53-2 (S)], the IC50 on Wild type EGFR (setting [9]) was 8 ± 0.8 nM; at EGFR-L858R/T790M (setting [10]), 15.2 ± 2.3 nM; in data set [1] (setting [11]), 0.062 ± 0.012 µM; in data set [2] (setting [12]) it was more than 10 µM.

For the molecule `C=CC(=O)N1CCC[C@@H](Cn2c(=O)c(-c3ccccc3)nc3cnc(Nc4ccc(N5CCN(C)CC5)cc4OC)nc32)C1` [53-1 (R)], the IC50 was 273 ± 38 nM on Wild type EGFR (setting [9]), 295 ± 85 nM on EGFR-L858R/T790M (setting [10]), more than 10 µM in data set [1] (setting [11]) and 5.31 ± 1.04 µM in data set [2] (setting [12]).
